Reference: US11339171B2, “MDM2 inhibitors” (Gan & Lee Pharmaceuticals, priority 2017, dated 2022)
Where “and” joins values, the source holds several entries; their conditions need not be identical. Equal entries are not always repeated. Where two headings read alike, the source gives them in different places.

Tests used:
[1] = test system: human osteosarcoma cell line SJSA-1; assay: Inhibition of proliferation of human osteosarcoma cell line SJSA-1 (DAPI staining, In Cell Analyzer); settings: Homo sapiens, SJSA-1, 72 h, read-out: IC50 (nM), inhibitory activity on proliferation of human osteosarcoma cell line SJSA-1, SJSA-1, incubated 72 h
MDM2 = biological target: T1, MDM2 (Homo sapiens, UniProt Q00987); assay: Inhibition test of MDM2-P53 (GST-MDM2, Biotin-P53, Anti-GST-Tb, SA-XL665); assay type: binding
T1 construct: made in house
T1 sequence (Q00987 whole entry): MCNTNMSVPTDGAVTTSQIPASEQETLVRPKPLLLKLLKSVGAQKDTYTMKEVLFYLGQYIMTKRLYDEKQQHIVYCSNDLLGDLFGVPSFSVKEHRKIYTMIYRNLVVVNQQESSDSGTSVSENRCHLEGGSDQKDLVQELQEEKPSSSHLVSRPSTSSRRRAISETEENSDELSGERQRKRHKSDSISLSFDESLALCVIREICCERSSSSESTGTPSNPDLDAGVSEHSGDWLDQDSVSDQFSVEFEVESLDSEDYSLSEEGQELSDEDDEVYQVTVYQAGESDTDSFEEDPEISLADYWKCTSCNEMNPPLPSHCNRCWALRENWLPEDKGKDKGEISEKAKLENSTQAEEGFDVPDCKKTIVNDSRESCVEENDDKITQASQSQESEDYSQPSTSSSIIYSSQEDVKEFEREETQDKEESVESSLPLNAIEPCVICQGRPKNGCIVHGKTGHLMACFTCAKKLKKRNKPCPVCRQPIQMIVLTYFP
Procedure, shortened: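 Binding was measured by TR-FRET with GST-MDM2 at 4 nM final in PBS with 0.1% BSA, 5 mM DTT and 1 mM AEBSF. Compounds were tested as twelve-point 5-fold dilutions and incubated with the detection mix for 90 min at 25 °C with shaking before plate-reader reading and curve fitting.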

[2] = Pharmacokinetics in ICR mice after intravenous and intragastric administration; assay type: in vivo; settings: for MRT last: read-out: MRT(0-t); for MRT inf: read-out: MRT(0-∞); for Vd: read-out: Vz
Procedure, shortened: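 Plasma concentrations by LC-MS/MS (range 1 to 2000 ng/ml) following single intravenous (2 mg/kg) or oral gavage (5 mg/kg) dosing of fasted male ICR mice, three per group. Vehicle 5% DMSO + 40% PEG400 + 55% (10% HP-β-CD in saline); standard PK parameters including bioavailability calculated.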

[3] = ICR mice, IV 2 mg/kg, individual animal, 2 mg/kg
[4] = ICR mice, PO 5 mg/kg, individual animal, 5 mg/kg
[5] = male, ICR, mouse, plasma, iv, 2 mg/kg, ICR mice, IV 2 mg/kg, individual animal
[6] = male, ICR, mouse, plasma, iv, 2 mg/kg, ICR mice, IV 2 mg/kg, individual animal, read-out: AUC(0-t)
[7] = male, ICR, mouse, plasma, iv, 2 mg/kg, ICR mice, IV 2 mg/kg, individual animal, read-out: Cmax
[8] = male, ICR, mouse, plasma, iv, 2 mg/kg, ICR mice, IV 2 mg/kg, individual animal, read-out: t1/2 (converted)
[9] = male, ICR, mouse, plasma, iv, 2 mg/kg, ICR mice, IV 2 mg/kg, mean of 3 animals
[10] = male, ICR, mouse, plasma, iv, 2 mg/kg, ICR mice, IV 2 mg/kg, mean of 3 animals, read-out: AUC(0-t)
[11] = male, ICR, mouse, plasma, iv, 2 mg/kg, ICR mice, IV 2 mg/kg, mean of 3 animals, read-out: Cmax
[12] = male, ICR, mouse, plasma, iv, 2 mg/kg, ICR mice, IV 2 mg/kg, mean of 3 animals, read-out: Tmax
[13] = male, ICR, mouse, plasma, iv, 2 mg/kg, ICR mice, IV 2 mg/kg, mean of 3 animals, read-out: t1/2 (converted)
[14] = male, ICR, mouse, plasma, po, 5 mg/kg, ICR mice, PO 5 mg/kg, individual animal
[15] = male, ICR, mouse, plasma, po, 5 mg/kg, ICR mice, PO 5 mg/kg, individual animal, read-out: AUC(0-t)
[16] = male, ICR, mouse, plasma, po, 5 mg/kg, ICR mice, PO 5 mg/kg, individual animal, read-out: Tmax
[17] = male, ICR, mouse, plasma, po, 5 mg/kg, ICR mice, PO 5 mg/kg, individual animal, read-out: t1/2 (converted)
[18] = male, ICR, mouse, plasma, po, 5 mg/kg, ICR mice, PO 5 mg/kg, mean of 3 animals
[19] = male, ICR, mouse, plasma, po, 5 mg/kg, ICR mice, PO 5 mg/kg, mean of 3 animals, read-out: AUC(0-t)
[20] = male, ICR, mouse, plasma, po, 5 mg/kg, ICR mice, PO 5 mg/kg, mean of 3 animals, read-out: Cmax
[21] = male, ICR, mouse, plasma, po, 5 mg/kg, ICR mice, PO 5 mg/kg, mean of 3 animals, read-out: Tmax
[22] = male, ICR, mouse, plasma, po, 5 mg/kg, ICR mice, PO 5 mg/kg, mean of 3 animals, read-out: t1/2 (converted)
[23] = male, ICR, mouse, plasma, po, 5 mg/kg, oral intragastric administration 5 mg/kg, read-out: AUC0-t
[24] = male, ICR, mouse, plasma, po, 5 mg/kg, oral intragastric administration 5 mg/kg, read-out: half-life (converted)
[25] = male, mouse, plasma, ICR mice, PO 5 mg/kg vs IV 2 mg/kg, from mean values, read-out: F* (bioavailability)
[26] = male, ICR, mouse, plasma, po, 5 mg/kg, ICR mice, PO 5 mg/kg, individual animal, read-out: Cmax
[27] = male, ICR, mouse, plasma, oral intragastric administration 5 mg/kg, read-out: bioavailability

COc1cc(C(C)C)ccc1-c1nc2c(n1C(C)C)[C@@]1(C(=O)Nc3cc(Cl)ccc31)N(c1cc(Cl)ccc1C)C2=O [Example S-32, (S)-6-chloro-5′-(5-chloro-2-methylphenyl)-3′-isopropyl-2′-(4-isopropyl-2-methoxyphenyl)-3′H-spiro[dihydroindole-3,4′-pyrrolo[3,4-d]imidazole]-2,6′(5′H)-dione]
IC50 [1]: 10.1 nM
IC50 (MDM2): 3.89 nM
AUC(0-t) [2, 3]: 3859.04 ng·h/mL and 4699.29 ng·h/mL
AUC(0-∞) [2, 3]: 4004.98 ng·h/mL and 4854.66 ng·h/mL
CL [2, 3]: 8.323 mL/min/kg and 6.8663 mL/min/kg
Cmax [2, 3]: 1902.13 ng/mL and 2766.01 ng/mL
MRT(0-t) [2, 3]: 1.29 h and 1.32 h
MRT(0-∞) [2, 3]: 1.53 h
Tmax [2, 3]: 30 min and 4.8 min and 15 min
Vz [2, 3]: 0.90833 L/kg and 0.7302 L/kg
t1/2 [2, 3]: 1.26 h and 1.23 h
AUC(0-t) [2, 4]: 10704.89 ng·h/mL and 8458.06 ng·h/mL
AUC(0-∞) [2, 4]: 11027.74 ng·h/mL and 9168.53 ng·h/mL
Cmax [2, 4]: 1578.70 ng/mL and 3356.31 ng/mL and 2518.33 ng/mL
MRT(0-t) [2, 4]: 2.24 h and 2.48 h
MRT(0-∞) [2, 4]: 2.48 h and 3.14 h
t1/2 [2, 4]: 1.51 h and 2.07 h
AUC(0-inf) [2, 5]: 7630 ng·h/mL
clearance [2, 5]: 4.37 mL/min/kg
AUC(0-t) [2, 6]: 7200 ng·h/mL
Cmax [2, 7]: 2450 ng/mL
MRT last [2, 5]: 1.61 h
MRT inf [2, 5]: 1.97 h
Vd [2, 5]: 0.543 L/kg
half-life [2, 8]: 86.4 min
AUC(0-inf) [2, 9]: 5500 ng·h/mL
clearance [2, 9]: 6.52 mL/min/kg
AUC(0-t) [2, 10]: 5250 ng·h/mL
Cmax [2, 11]: 2370 ng/mL
MRT last [2, 9]: 1.41 h
MRT inf [2, 9]: 1.68 h
Tmax [2, 12]: 16.7 min
Vd [2, 9]: 0.727 L/kg
half-life [2, 13]: 78.6 min
AUC(0-inf) [2, 14]: 7100 ng·h/mL
AUC(0-t) [2, 15]: 6020 ng·h/mL
MRT last [2, 14]: 2.79 h
MRT inf [2, 14]: 4.22 h
Tmax [2, 16]: 60 min
half-life [2, 17]: 173 min
AUC(0-inf) [2, 18]: 9100 ng·h/mL
AUC(0-t) [2, 19]: 8390 ng·h/mL
Cmax [2, 20]: 2480 ng/mL
MRT last [2, 18]: 2.5 h
MRT inf [2, 18]: 3.28 h
Tmax [2, 21]: 60 min
half-life [2, 22]: 130 min
AUC(0-t) [2, 23]: 8390 ng·h/mL
half-life [2, 24]: 130 min
bioavailability [2, 25]: 63.9%

COc1ncc(-c2nc3c(n2C(C)C)[C@@]2(C(=O)Nc4cc(Cl)ccc42)N(c2cc(Cl)ccc2F)C3=O)c(OC)n1 [Example S-44, (S)-6-chloro-5′-(5-chloro-2-fluorophenyl)-2′-(2,4-dimethoxypyrimidin-5-yl)-3′-isopropyl-3′H-spiro[dihydroindole-3,4′-pyrrolo[3,4-d]imidazole]-2,6′(5′H)-dione]
IC50 [1]: 11.9 nM
IC50 (MDM2): 1.18 nM
AUC(0-t) [2, 3]: 2703.63 ng·h/mL and 2987.84 ng·h/mL
AUC(0-∞) [2, 3]: 3052.47 ng·h/mL and 3364.67 ng·h/mL
CL [2, 3]: 10.92 mL/min/kg and 9.91 mL/min/kg
Cmax [2, 3]: 826.58 ng/mL and 951.21 ng/mL
MRT(0-t) [2, 3]: 1.82 h
MRT(0-∞) [2, 3]: 2.61 h and 2.56 h
Vz [2, 3]: 1.82 L/kg and 1.64 L/kg
t1/2 [2, 3]: 1.92 h and 1.91 h
AUC(0-t) [2, 4]: 5161.46 ng·h/mL and 6287.89 ng·h/mL
AUC(0-∞) [2, 4]: 5447.83 ng·h/mL and 6556.64 ng·h/mL
Cmax [2, 4]: 1097.85 ng/mL and 1204.30 ng/mL
MRT(0-t) [2, 4]: 2.81 h and 3.08 h
MRT(0-∞) [2, 4]: 3.22 h and 3.38 h
Tmax [2, 4]: 120 min
t1/2 [2, 4]: 1.77 h and 1.65 h
AUC(0-inf) [2, 5]: 2770 ng·h/mL
clearance [2, 5]: 12.1 mL/min/kg
AUC(0-t) [2, 6]: 2510 ng·h/mL
Cmax [2, 7]: 872 ng/mL
MRT last [2, 5]: 1.71 h
MRT inf [2, 5]: 2.35 h
Tmax ([2]; male, ICR, mouse, plasma, iv, 2 mg/kg, ICR mice, IV 2 mg/kg, individual animal, read-out: Tmax): 4.8 min
Vd [2, 5]: 1.86 L/kg
half-life [2, 8]: 107 min
AUC(0-inf) [2, 9]: 3060 ng·h/mL
clearance [2, 9]: 11 mL/min/kg
AUC(0-t) [2, 10]: 2730 ng·h/mL
Cmax [2, 11]: 883 ng/mL
MRT last [2, 9]: 1.77 h
MRT inf [2, 9]: 2.51 h
Tmax [2, 12]: 4.98 min
Vd [2, 9]: 1.77 L/kg
half-life [2, 13]: 112 min
AUC(0-inf) [2, 14]: 8960 ng·h/mL
AUC(0-t) [2, 15]: 7900 ng·h/mL
Cmax [2, 26]: 1360 ng/mL
MRT last [2, 14]: 3.17 h
MRT inf [2, 14]: 4.17 h
Tmax [2, 16]: 60 min
half-life [2, 17]: 154 min
AUC(0-inf) [2, 18]: 6990 ng·h/mL
AUC(0-t) [2, 19]: 6450 ng·h/mL
Cmax [2, 20]: 1220 ng/mL
MRT last [2, 18]: 3.02 h
MRT inf [2, 18]: 3.59 h
Tmax [2, 21]: 79.8 min
half-life [2, 22]: 120 min
AUC(0-t) [2, 23]: 6450 ng·h/mL
half-life [2, 24]: 120 min
bioavailability [2, 27]: 94.4%
bioavailability [2, 25]: 94.4%

COc1ncc(-c2nc3c(n2C(C)C)[C@@]2(C(=O)Nc4cc(Cl)ccc42)N(c2cc(F)cc(Cl)c2)C3=O)c(OC)n1 [Example S-45, (S)-6-chloro-5′-(3-chloro-5-fluorophenyl)-2′-(2,4-dimethoxypyrimidin-5-yl)-3′-isopropyl-3′H-spiro[dihydroindole-3,4′-pyrrolo[3,4-d]imidazole]-2,6′(5′H)-dione]
IC50 [1]: 6.2 nM
IC50 (MDM2): 1.72 nM
AUC(0-t) [2, 3]: 1865.23 ng·h/mL and 2072.07 ng·h/mL
AUC(0-∞) [2, 3]: 1895.22 ng·h/mL and 2103.04 ng·h/mL
CL [2, 3]: 17.59 mL/min/kg and 15.85 mL/min/kg
Cmax [2, 3]: 779.74 ng/mL and 882.75 ng/mL
MRT(0-t) [2, 3]: 1.36 h
MRT(0-∞) [2, 3]: 1.44 h
Tmax [2, 3]: 4.8 min and 15 min
Vz [2, 3]: 1.54 L/kg and 1.37 L/kg
t1/2 [2, 3]: 1.01 h and 1.00 h
AUC(0-t) [2, 4]: 5315.63 ng·h/mL and 4196.04 ng·h/mL
AUC(0-∞) [2, 4]: 5471.40 ng·h/mL and 4431.71 ng·h/mL
Cmax [2, 4]: 1355.63 ng/mL and 1169.32 ng/mL
MRT(0-t) [2, 4]: 2.53 h
MRT(0-∞) [2, 4]: 2.75 h
Tmax [2, 4]: 60 min
t1/2 [2, 4]: 1.54 h and 1.87 h
AUC(0-inf) [2, 5]: 1830 ng·h/mL
clearance [2, 5]: 18.3 mL/min/kg
AUC(0-t) [2, 6]: 1790 ng·h/mL
Cmax [2, 7]: 766 ng/mL
MRT last [2, 5]: 1.34 h
MRT inf [2, 5]: 1.45 h
Vd [2, 5]: 1.65 L/kg
half-life [2, 8]: 63 min
AUC(0-inf) [2, 9]: 1940 ng·h/mL
clearance [2, 9]: 17.2 mL/min/kg
AUC(0-t) [2, 10]: 19100 ng·h/mL
Cmax [2, 11]: 809 ng/mL
MRT last [2, 9]: 1.35 h
MRT inf [2, 9]: 1.45 h
Tmax [2, 12]: 8.34 min
Vd [2, 9]: 1.52 L/kg
half-life [2, 13]: 61.2 min
AUC(0-inf) [2, 14]: 6350 ng·h/mL
AUC(0-t) [2, 15]: 5860 ng·h/mL
Cmax [2, 26]: 1590 ng/mL
MRT last [2, 14]: 2.56 h
MRT inf [2, 14]: 3.21 h
Tmax [2, 16]: 30 min
half-life [2, 17]: 130 min
AUC(0-inf) [2, 18]: 5420 ng·h/mL
AUC(0-t) [2, 19]: 5120 ng·h/mL
Cmax [2, 20]: 1370 ng/mL
MRT last [2, 18]: 2.55 h
MRT inf [2, 18]: 2.99 h
Tmax [2, 21]: 49.8 min
half-life [2, 22]: 112 min
AUC(0-t) [2, 23]: 5120 ng·h/mL
half-life [2, 24]: 112 min
bioavailability [2, 27]: 107%
bioavailability [2, 25]: 107%
